Assay [1] deals with T1, TYK2 (Homo sapiens, UniProt P29597). The experiment in a line: HEK-Blue IFNα/β reporter assay (SEAP) for TYK2 pseudokinase inhibition. In kind it is cell-based. The note with it: HEK-Blue IFNα/β cells, 1 ng/mL human recombinant IFNα. As to the method:
(§1) HEK-Blue™ IL-23 and IFNα/β cells with a stably-integrated cytokine receptor and STAT3 or STAT1 express STAT-inducible secreted embryonic alkaline phosphatase (SEAP) reporter gene upon cytokine stimulation. These cells are plated in DMVEM (Gibco) containing 10% heat-inactivated FBS (Gibco) and 100 U/mL PenStrep (Gibco) at 37° C. under […] conditions for 20-22 hours. The cells are then pretreated with serially diluted test compounds for 60 min prior to stimulation with either 10 ng/mL human recombinant IL-23 (Miltenyl Biotech) or 1 ng/mL human recombinant IFNα (InvivoGen) for 22-24 hours for IL-23 or 16-18 h for IFNα. SEAP induction is measured using the QUANTI Blue™ Solution (InvivoGen) according to the manufacturer's instructions. Inhibition data are calculated by comparison to no inhibitor control wells for 000 inhibition and non-stimulated control wells for 10000 inhibition. Dose response curves are generated to determine the concentration required to inhibit 5000 of cellular response (IC50) as derived by non-linear regression analysis.
Background: A reporter such as luciferase makes a cellular process visible.

Assay [2] concerns the target T1, TYK2. Nature of the assay: HEK-Blue IL-23 reporter assay (SEAP) for TYK2 pseudokinase inhibition. The assay is classed as cell-based. Details: HEK-Blue™ IL-23 and IFNα/β cells with a stably-integrated cytokine receptor and STAT3 or STAT1; host or cells: HEK-Blue IL-23 / HEK-Blue IFNα/β cells (HEK293 background). The note with it: HEK-Blue IL-23 cells, 10 ng/mL human recombinant IL-23, SEAP reporter; read-out: IL23 IC50. As to the method:
as §1

The record followed here is patent US12668594B2, “TYK2 inhibitors and uses thereof” (Sudo Biosciences Limited, priority 2020, dated 2026).

For orientation: IC50 means the concentration that inhibits the measured activity by half.

Some results are limits rather than exact numbers.

T1 sequence (P29597 whole entry): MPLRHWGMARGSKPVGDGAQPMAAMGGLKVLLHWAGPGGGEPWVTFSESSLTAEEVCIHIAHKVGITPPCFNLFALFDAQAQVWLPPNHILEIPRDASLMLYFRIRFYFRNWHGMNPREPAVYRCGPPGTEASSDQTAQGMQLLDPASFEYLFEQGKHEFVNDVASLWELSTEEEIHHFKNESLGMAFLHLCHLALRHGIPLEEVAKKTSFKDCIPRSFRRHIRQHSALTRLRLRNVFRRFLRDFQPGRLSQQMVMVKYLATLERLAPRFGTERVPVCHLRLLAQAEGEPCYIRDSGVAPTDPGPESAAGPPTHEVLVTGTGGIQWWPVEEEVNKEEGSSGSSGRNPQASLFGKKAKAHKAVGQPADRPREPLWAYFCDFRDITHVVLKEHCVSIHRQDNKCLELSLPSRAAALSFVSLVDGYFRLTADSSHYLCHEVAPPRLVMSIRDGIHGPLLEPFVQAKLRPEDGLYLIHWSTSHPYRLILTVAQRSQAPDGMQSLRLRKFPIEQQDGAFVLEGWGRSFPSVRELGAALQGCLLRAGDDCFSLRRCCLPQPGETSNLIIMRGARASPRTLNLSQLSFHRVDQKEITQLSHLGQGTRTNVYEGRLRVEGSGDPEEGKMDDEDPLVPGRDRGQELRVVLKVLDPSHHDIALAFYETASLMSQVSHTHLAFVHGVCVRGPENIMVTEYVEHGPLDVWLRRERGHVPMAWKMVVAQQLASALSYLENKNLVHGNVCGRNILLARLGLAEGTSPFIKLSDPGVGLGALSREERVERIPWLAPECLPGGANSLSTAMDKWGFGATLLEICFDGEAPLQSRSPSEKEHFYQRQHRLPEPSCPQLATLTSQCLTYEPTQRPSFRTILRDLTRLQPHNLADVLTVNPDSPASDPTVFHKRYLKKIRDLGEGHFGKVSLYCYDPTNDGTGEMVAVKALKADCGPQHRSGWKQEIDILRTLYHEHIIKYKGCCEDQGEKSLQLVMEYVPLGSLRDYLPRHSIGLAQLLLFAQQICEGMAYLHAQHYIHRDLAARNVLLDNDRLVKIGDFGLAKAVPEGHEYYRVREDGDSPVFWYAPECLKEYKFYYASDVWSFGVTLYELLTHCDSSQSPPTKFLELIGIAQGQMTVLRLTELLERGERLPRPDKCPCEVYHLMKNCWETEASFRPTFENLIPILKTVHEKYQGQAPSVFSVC

`COc1cccc(-n2[nH]c(=O)c3cnc(Nc4cc(C)nc(C)n4)cc32)n1` [Compound I-33, 6-((2,6-dimethylpyrimidin-4-yl)amino)-1-(6-methoxypyridin-2-yl)-1,2-dihydro-3H1-pyrazolo[4,3-c]pyridin-3-one]: the IC50 in assay [1] and in assay [2] was less than 10 µM in each case.

With `CC(C)(C)OC(=O)Nc1cc2c(cn1)c(=O)[nH]n2-c1ccccc1` [Compound I-35, tert-butyl N-{3-oxo-1-phenyl-1H,2H,3H-pyrazolo[4,3-c]pyridin-6-yl}carbamate], the IC50 in assay [1] and in assay [2] was greater than 90 µM each time.

Consider `COc1cccc(-n2[nH]c(=O)c3cnc(Nc4ccc(F)cn4)cc32)n1` [Compound I-36, 6-((5-fluoropyridin-2-yl)amino)-1-(6-methoxypyridin-2-yl)-1,2-dihydro-3H-pyrazolo[4,3-c]pyridin-3-one], for which the IC50 in assay [1] and in assay [2] was less than 10 µM in each case.

Regarding `COc1cccc(-n2[nH]c(=O)c3cnc(Nc4ccc(F)cn4)cc32)c1F` [Compound I-38, 1-(2-fluoro-3-methoxyphenyl)-6-((5-fluoropyridin-2-yl)amino)-1,2-dihydro-3H-pyrazolo[4,3-c]pyridin-3-one], the IC50 was 10 to 30 µM in assay [1] and less than 10 µM in assay [2].

In the case of `COc1cccc(-n2[nH]c(=O)c3cnc(Nc4ccc(F)cn4)cc32)c1` [Compound I-39, 6-((5-fluoropyridin-2-yl)amino)-1-(3-methoxyphenyl)-1,2-dihydro-3H-pyrazolo[4,3-c]pyridin-3-one], the IC50 in assay [1] and in assay [2] was less than 10 µM each time.

For `COc1cccc(-n2[nH]c(=O)c3cnc(Nc4ccc(C#N)cn4)cc32)c1` [Compound I-40, 6-((1-(3-methoxyphenyl)-3-oxo-2,3-dihydro-1H-pyrazolo[4,3-c]pyridin-6-yl)amino)nicotinonitrile], the IC50 in assay [1] and in assay [2] was less than 10 µM each time.

Consider `COc1ccc(Nc2cc3c(cn2)c(=O)[nH]n3-c2cccc(OC)c2)nc1` [Compound I-41, 1-(3-methoxyphenyl)-6-((5-methoxypyridin-2-yl)amino)-1,2-dihydro-3H-pyrazolo[4,3-c]pyridin-3-one], for which the IC50 in assay [1] and in assay [2] was less than 10 µM throughout.

Consider `COc1cccc(-n2[nH]c(=O)c3cnc(Nc4ccc(C(F)(F)F)cn4)cc32)c1` [Compound I-42, 1-(3-methoxyphenyl)-6-((5-(trifluoromethyl)pyridin-2-yl)amino)-1,2-dihydro-3H-pyrazolo[4,3-c]pyridin-3-one], for which the IC50 in assay [1] and in assay [2] was less than 10 µM throughout.

On to `COc1cccc(-n2[nH]c(=O)c3cnc(Nc4cc(C#N)ccn4)cc32)c1` [Compound I-44, 2-((1-(3-methoxyphenyl)-3-oxo-2,3-dihydro-1H-pyrazolo[4,3-c]pyridin-6-yl)amino)isonicotinonitrile], for which the half-maximal inhibitory concentration (IC50) in assay [1] and in assay [2] was less than 10 µM in each case.

For the compound `COc1cccc(-n2[nH]c(=O)c3cnc(Nc4cc(OC)ccn4)cc32)c1` [Compound I-45, 1-(3-methoxyphenyl)-6-((4-methoxypyridin-2-yl)amino)-1,2-dihydro-3H-pyrazolo[4,3-c]pyridin-3-one], the IC50 in assay [1] was greater than 90 µM; in assay [2], 10 to 30 µM.

In the case of `COc1cccc(-n2[nH]c(=O)c3cnc(Nc4cc(OC)ncn4)cc32)c1` [Compound I-46, 1-(3-methoxyphenyl)-6-((6-methoxypyrimidin-4-yl)amino)-1,2-dihydro-3H-pyrazolo[4,3-c]pyridin-3-one], the IC50 is greater than 90 µM in assay [1] and less than 10 µM in assay [2].

On to `COc1cccc(-n2[nH]c(=O)c3cnc(Nc4cc(C)ncn4)cc32)c1` [Compound I-47, 1-(3-methoxyphenyl)-6-((6-methylpyrimidin-4-yl)amino)-1,2-dihydro-3H-pyrazolo[4,3-c]pyridin-3-one], for which the results for the IC50 in assay [1] and in assay [2] were less than 10 µM and greater than 90 µM, respectively.

For `COc1cccc(-n2[nH]c(=O)c3cnc(Nc4ccnc(OC)n4)cc32)c1` [Compound I-48, 1-(3-methoxyphenyl)-6-((2-methoxypyrimidin-4-yl)amino)-1,2-dihydro-3H-pyrazolo[4,3-c]pyridin-3-one], the IC50 in assay [1] and in assay [2] was greater than 90 µM in each case.

In the case of `COc1cccc(-n2[nH]c(=O)c3cnc(Nc4ccccn4)cc32)c1` [Compound I-50, 1-(3-methoxyphenyl)-6-(pyridin-2-ylamino)-1,2-dihydro-3H-pyrazolo[4,3-c]pyridin-3-one], the 50% inhibitory concentration (IC50) in assay [1] and in assay [2] was less than 10 µM throughout.

Consider `COc1cccc(-n2[nH]c(=O)c3cnc(Nc4ccncn4)cc32)c1` [Compound I-51, 1-(3-methoxyphenyl)-6-(pyrimidin-4-ylamino)-1,2-dihydro-3H-pyrazolo[4,3-c]pyridin-3-one], for which the IC50 in assay [1] and in assay [2] was less than 10 µM throughout.

On to `COc1cccc(-n2[nH]c(=O)c3cnc(Nc4cccnn4)cc32)c1` [Compound I-52, 1-(3-methoxyphenyl)-6-(pyridazin-3-ylamino)-1,2-dihydro-3H-pyrazolo[4,3-c]pyridin-3-one], for which the IC50 in assay [1] and in assay [2] was less than 10 µM each time.

With `COc1cccc(-n2[nH]c(=O)c3cnc(Nc4cnccn4)cc32)c1` [Compound I-53, 1-(3-methoxyphenyl)-6-(pyrazin-2-ylamino)-1,2-dihydro-3H-pyrazolo[4,3-c]pyridin-3-one], the IC50 in assay [1] and in assay [2] was less than 10 µM throughout.

Turning to `COc1cccc(-n2[nH]c(=O)c3cnc(NC(=O)C4CC4)cc32)c1` [Compound I-54, N-(1-(3-methoxyphenyl)-3-oxo-2,3-dihydro-1H-pyrazolo[4,3-c]pyridin-6-yl)cyclopropanecarboxamide], the IC50 in assay [1] and in assay [2] was less than 10 µM each time.

For `O=C(Nc1cc2c(cn1)c(=O)[nH]n2-c1cccc(OC(F)(F)F)c1)C1CC1` [Compound I-55, N-(3-oxo-1-(3-(trifluoromethoxy)phenyl)-2,3-dihydro-1H-pyrazolo[4,3-c]pyridin-6-yl)cyclopropanecarboxamide], the IC50 in assay [1] and in assay [2] was less than 10 µM throughout.

As to `O=c1[nH]n(-c2cccc(OC(F)(F)F)c2)c2cc(Nc3ccc(F)cn3)ncc12` [Compound I-56, 6-((5-fluoropyridin-2-yl)amino)-1-(3-(trifluoromethoxy)phenyl)-1,2-dihydro-3H-pyrazolo[4,3-c]pyridin-3-one], the values for the IC50 in assay [1] and in assay [2] were 10 to 30 µM and less than 10 µM, respectively.

Regarding `Cc1cc(Nc2cc3c(cn2)c(=O)[nH]n3-c2cccc(C(F)(F)F)c2)nc(C)n1` [Compound I-57, 6-((2,6-dimethylpyrimidin-4-yl)amino)-1-(3-(trifluoromethyl)phenyl)-1,2-dihydro-3H-pyrazolo[4,3-c]pyridin-3-one], the IC50 in assay [1] and in assay [2] was less than 10 µM throughout.

For the compound `O=C(Nc1cc2c(cn1)c(=O)[nH]n2-c1cccc(C(F)(F)F)c1)C1CC1` [Compound I-58, N-(3-oxo-1-(3-(trifluoromethyl)phenyl)-2,3-dihydro-1H-pyrazolo[4,3-c]pyridin-6-yl)cyclopropanecarboxamide], the IC50 in assay [1] and in assay [2] was less than 10 µM throughout.

Turning to `O=c1[nH]n(-c2cccc(F)c2)c2cc(Nc3ccc(F)cn3)ncc12` [Compound I-60, 1-(3-fluorophenyl)-6-((5-fluoropyridin-2-yl)amino)-1,2-dihydro-3H-pyrazolo[4,3-c]pyridin-3-one], the IC50 is less than 10 µM in assay [1] and greater than 90 µM in assay [2].

In the case of `O=C(Nc1cc2c(cn1)c(=O)[nH]n2-c1cccc(F)c1)C1CC1` [Compound I-61, N-(1-(3-fluorophenyl)-3-oxo-2,3-dihydro-1H-pyrazolo[4,3-c]pyridin-6-yl)cyclopropanecarboxamide], the IC50 in assay [1] and in assay [2] was less than 10 µM throughout.

As for `CS(=O)(=O)c1ccc(-n2[nH]c(=O)c3cnc(Nc4ccc(F)cn4)cc32)cc1` [Compound I-62, 6-((5-fluoropyridin-2-yl)amino)-1-(4-(methylsulfonyl)phenyl)-1,2-dihydro-3H-pyrazolo[4,3-c]pyridin-3-one], the half-maximal inhibitory concentration (IC50) in assay [1] was 30 to 90 µM; in assay [2] it was less than 10 µM.

On to `Cc1cc(Nc2cc3c(cn2)c(=O)[nH]n3-c2ccc(C#N)cc2)nc(C)n1` [Compound I-63, 4-(6-((2,6-dimethylpyrimidin-4-yl)amino)-3-oxo-2,3-dihydro-1H-pyrazolo[4,3-c]pyridin-1-yl)benzonitrile], for which the concentration for half-maximal inhibition (IC50) in assay [1] and in assay [2] was less than 10 µM throughout.

Consider `N#Cc1ccc(-n2[nH]c(=O)c3cnc(Nc4ccc(F)cn4)cc32)cc1` [Compound I-64, 4-(6-((5-fluoropyridin-2-yl)amino)-3-oxo-2,3-dihydro-1H-pyrazolo[4,3-c]pyridin-1-yl)benzonitrile], for which the concentration for half-maximal inhibition (IC50) in assay [1] and in assay [2] was less than 10 µM throughout.

Take `Cc1cc(Nc2cc3c(cn2)c(=O)[nH]n3-c2ccc(C(F)(F)F)cc2)nc(C)n1` [Compound I-66, 6-((2,6-dimethylpyrimidin-4-yl)amino)-1-(4-(trifluoromethyl)phenyl)-1,2-dihydro-3H-pyrazolo[4,3-c]pyridin-3-one]: the IC50 in assay [1] and in assay [2] was less than 10 µM each time.
